Measured values from ChEMBL document CHEMBL1949630, “Discovery of benzodihydroisofurans as novel, potent, bioavailable and brain-penetrant prolylcarboxypeptidase inhibitors” (Bioorg Med Chem Lett, 2012).
Active and inactive are the calls of the source. No cut-off for these calls is given here.

Experiments:
[1] = Fraction unbound in human plasma; format: ADME, cell-free
[2] = Volume of distribution at steady state in dog at 1 mg/kg, iv and 2 mg/kg, po by LC/MS/MS analysis; format: ADME, organism-based, Canis lupus familiaris; details: in vivo, read-out: Vdss
[3] = Volume of distribution at steady state in rat at 1 mg/kg, iv and 2 mg/kg, po by LC/MS/MS analysis; format: ADME, organism-based; details: in vivo, read-out: Vdss
[4] = Drug uptake in established diet-induced obese C57BL/6 mouse blood at 30 mg/kg, po qd for 2 days; format: ADME, organism-based; design: dose 30 mg/kg, route oral; details: read-out: Drug uptake
[5] = molecular target: T1, Lysosomal Pro-X carboxypeptidase (Mus musculus) (UniProt Q7TMR0); assay: Inhibition of mouse PrCP in 3 mg/kg, po administered qd for 2 days established diet-induced obese C57BL/6 mouse heat inactivated plasma; format: organism-based; design: dose 3 mg/kg; details: at 3 mg/kg
T1 sequence (whole entry): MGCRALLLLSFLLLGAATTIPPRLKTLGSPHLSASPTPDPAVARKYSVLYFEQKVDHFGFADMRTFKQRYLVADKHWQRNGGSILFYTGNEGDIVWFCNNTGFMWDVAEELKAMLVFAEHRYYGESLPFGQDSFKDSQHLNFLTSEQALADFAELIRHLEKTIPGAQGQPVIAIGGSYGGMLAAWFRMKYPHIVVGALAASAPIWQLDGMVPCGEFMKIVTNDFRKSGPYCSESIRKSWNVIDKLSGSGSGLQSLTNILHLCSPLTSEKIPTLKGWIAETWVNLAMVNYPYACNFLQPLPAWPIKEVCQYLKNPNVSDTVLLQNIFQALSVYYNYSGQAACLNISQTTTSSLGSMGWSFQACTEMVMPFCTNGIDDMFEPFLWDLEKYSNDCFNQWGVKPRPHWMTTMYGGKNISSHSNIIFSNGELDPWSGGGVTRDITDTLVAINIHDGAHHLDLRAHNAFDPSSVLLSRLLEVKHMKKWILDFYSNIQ

Mus musculus [6] = assay: Antiobesity activity in PrCP knockout mouse assessed as reduction of body weight at 30 mg/kg, po qd for 5 days; format: functional, organism-based; design: dose 30 mg/kg
[7] = Volume of distribution at steady state in C57BL/6 mouse at 1 mg/kg, iv and 2 mg/kg, po by LC/MS/MS analysis; format: ADME, organism-based; details: in vivo, read-out: Vdss
[8] = molecular target: T2, Lysosomal Pro-X carboxypeptidase (Mus musculus, UniProt Q7TMR0); assay: Inhibition of mouse PrCP
T2 sequence (Q7TMR0 whole entry): T1 sequence (whole entry)

[9] = Drug uptake in established diet-induced obese C57BL/6 mouse blood at 3 mg/kg, po qd for 2 days; format: ADME, organism-based; design: dose 3 mg/kg, route oral; details: read-out: Drug uptake
[10] = molecular target: T1, Lysosomal Pro-X carboxypeptidase (Mus musculus); assay: Inhibition of mouse PrCP in 10 mg/kg, po administered qd for 2 days established diet-induced obese C57BL/6 mouse heat inactivated plasma; format: organism-based; design: dose 10 mg/kg; details: at 10 mg/kg
[11] = Clearance in C57BL/6 mouse at 1 mg/kg, iv and 2 mg/kg, po by LC/MS/MS analysis; format: ADME, organism-based; details: in vivo
[12] = Drug uptake in established diet-induced obese wild type C57BL/6 mouse brain at 30 mg/kg, po qd for 5 days measured on day 6; format: ADME, organism-based; design: dose 30 mg/kg, route oral; details: read-out: Drug uptake
[13] = molecular target: T1, Lysosomal Pro-X carboxypeptidase (Mus musculus); assay: Inhibition of mouse PrCP in 30 mg/kg, po qd for 5 days established diet-induced obese wild type C57BL/6 mouse heat inactivated plasma measured on day 6; format: organism-based; design: dose 30 mg/kg; details: at 30 mg/kg
[14] = Clearance in rat at 1 mg/kg, iv and 2 mg/kg, po by LC/MS/MS analysis; format: ADME, organism-based; details: in vivo
[15] = Half life in rat at 1 mg/kg, iv and 2 mg/kg, po by LC/MS/MS analysis; format: ADME, organism-based; details: in vivo
[16] = Drug uptake in established diet-induced obese C57BL/6 mouse brain at 30 mg/kg, po qd for 2 days; format: ADME, organism-based; design: dose 30 mg/kg, route oral; details: read-out: Drug uptake
[17] = molecular target: T1, Lysosomal Pro-X carboxypeptidase (Mus musculus); assay: Inhibition of mouse PrCP in qd for 2 days po dosed established diet-induced obese C57BL/6 mouse heat inactivated plasma; format: organism-based
[18] = molecular target: T1, Lysosomal Pro-X carboxypeptidase (Mus musculus); assay: Inhibition of mouse PrCP in 30 mg/kg, po administered qd for 2 days established diet-induced obese C57BL/6 mouse heat inactivated plasma; format: organism-based; design: dose 30 mg/kg; details: at 30 mg/kg
[19] = Half life in C57BL/6 mouse at 1 mg/kg, iv and 2 mg/kg, po by LC/MS/MS analysis; format: ADME, organism-based; details: in vivo
[20] = molecular target: T2, Lysosomal Pro-X carboxypeptidase; assay: Inhibition of PrCP in mouse plasma assessed as angiotensin 3 cleavage by whole serum shift assay
[21] = Ratio of drug level in brain to plasma in wild type CF1 mouse at 3 mg/kg, po after 4 hrs; format: ADME, organism-based; design: dose 3 mg/kg, route oral; details: brain and plasma, read-out: BPR
[22] = Plasma concentration in established diet-induced obese wild type C57BL/6 mouse at 30 mg/kg, po qd for 5 days measured on day 6; format: ADME, organism-based; design: dose 30 mg/kg, route oral
[23] = Oral bioavailability in C57BL/6 mouse at 2 mg/kg by LC/MS/MS analysis; format: ADME, organism-based; details: in vivo
[24] = Drug uptake in PrCP knockout mouse brain at 30 mg/kg, po qd for 5 days measured on day 6; format: ADME, organism-based; design: dose 30 mg/kg, route oral; details: read-out: Drug uptake
[25] = Half life in dog at 1 mg/kg, iv and 2 mg/kg, po by LC/MS/MS analysis; format: ADME, organism-based, Canis lupus familiaris; details: in vivo
[26] = Drug uptake in established diet-induced obese C57BL/6 mouse blood at 10 mg/kg, po qd for 2 days; format: ADME, organism-based; design: dose 10 mg/kg, route oral; details: read-out: Drug uptake
[27] = Drug uptake in established diet-induced obese C57BL/6 mouse brain at 3 mg/kg, po qd for 2 days; format: ADME, organism-based; design: dose 3 mg/kg, route oral; details: read-out: Drug uptake
Rattus norvegicus = assay: Dose normalized AUC in rat at 2 mg/kg by LC/MS/MS analysis; format: ADME, organism-based; design: dose 2 mg/kg; details: in vivo
[28] = Plasma concentration in established diet-induced obese C57BL/6 mouse at 30 mg/kg, po qd for 2 days; format: ADME, organism-based; design: dose 30 mg/kg, route oral
Canis familiaris = assay: Dose normalized AUC in dog at 2 mg/kg by LC/MS/MS analysis; format: ADME, organism-based, Canis lupus familiaris; design: dose 2 mg/kg; details: in vivo
[29] = molecular target: T1, Lysosomal Pro-X carboxypeptidase (Mus musculus); assay: Inhibition of mouse PrCP in 30 mg/kg, po qd for 5 days established diet-induced obese wild type C57BL/6 mouse heat inactivated brain homogenates measured on day 6; format: organism-based; design: dose 30 mg/kg; details: at 30 mg/kg
[30] = Oral bioavailability in rat at 2 mg/kg by LC/MS/MS analysis; format: ADME, organism-based; details: in vivo
[31] = Clearance in dog at 1 mg/kg, iv and 2 mg/kg, po by LC/MS/MS analysis; format: ADME, organism-based, Canis lupus familiaris; details: in vivo
Mus musculus [32] = assay: Antiobesity activity in established diet-induced obese C57BL/6 mouse assessed as reduction of body weight at 30 mg/kg, po qd for 5 days; format: functional, organism-based; design: dose 30 mg/kg
[33] = Fraction unbound in mouse plasma; format: ADME, cell-free
[34] = Plasma concentration in established diet-induced obese C57BL/6 mouse at 10 mg/kg, po qd for 2 days; format: ADME, organism-based; design: dose 10 mg/kg, route oral
Mus musculus [35] = assay: Dose normalized AUC in C57BL/6 mouse at 2 mg/kg by LC/MS/MS analysis; format: ADME, organism-based; design: dose 2 mg/kg; details: in vivo
[36] = Ratio of drug level in brain to plasma in p-gp-/- mouse at 3 mg/kg, po after 4 hrs; format: ADME, organism-based; design: dose 3 mg/kg, route oral; details: brain and plasma, read-out: BPR
[37] = Plasma concentration in established diet-induced obese C57BL/6 mouse at 3 mg/kg, po qd for 2 days; format: ADME, organism-based; design: dose 3 mg/kg, route oral
[38] = Drug uptake in established diet-induced obese C57BL/6 mouse brain at 10 mg/kg, po qd for 2 days; format: ADME, organism-based; design: dose 10 mg/kg, route oral; details: read-out: Drug uptake
[39] = Oral bioavailability in dog at 2 mg/kg by LC/MS/MS analysis; format: ADME, organism-based, Canis lupus familiaris; details: in vivo
[40] = Plasma concentration in PrCP knockout mouse at 30 mg/kg, po qd for 5 days measured on day 6; format: ADME, organism-based; design: dose 30 mg/kg, route oral

## FC(F)(F)Oc1ccc(CN2CCC3(CC2)OC(c2cc(Cl)ccn2)c2ccccc23)cc1 (configuration not stated)
[1]
  fraction unbound: < 0.0006
[2]
  Vd: 5.5 L/kg
[3]
  Vd: 5.9 L/kg
[4]
  concentration at 48 h: 590 nM
[5]
  inhibition: 53%
Mus musculus [6]
  Activity: inactive
[7]
  Vd: 20 L/kg
[8]
  IC50: 0.18 nM
[9]
  concentration at 48 h: 80 nM
[10]
  inhibition: 82%
[11]
  clearance: 45 mL/min/kg
[12]
  concentration at 120 h: 690 nM
[13]
  inhibition: 88%
[14]
  clearance: 11 mL/min/kg
[15]
  half-life: 8.9 h
[16]
  concentration at 48 h: 520 nM
[17]
  inhibition: Dose-dependent effect
[18]
  inhibition: 93%
[19]
  half-life: 6.7 h
[20]
  IC50: 23 nM
[21]
  Kp at 4 h: 0.94
[22]
  concentration at 120 h: 1420 nM
[23]
  bioavailability: 35%
[24]
  concentration at 120 h: 820 nM
[25]
  half-life: 14 h
[26]
  concentration at 48 h: 280 nM
[27]
  concentration at 48 h: 30 nM
Rattus norvegicus
  AUC/dose: 1.8 µM·kg·h/mg
[28]
  concentration at 48 h: 520 nM
Canis familiaris
  AUC/dose: 5 µM·kg·h/mg
[29]
  inhibition: 61%
[30]
  bioavailability: 60%
[31]
  clearance: 5.9 mL/min/kg
Mus musculus [32]
  Activity: inactive
[33]
  fraction unbound: < 0.0006
[34]
  concentration at 48 h: 240 nM
Mus musculus [35]
  AUC/dose: 0.28 µM·kg·h/mg
[36]
  Kp at 4 h: 1.9
[37]
  concentration at 48 h: 50 nM
[38]
  concentration at 48 h: 110 nM
[39]
  bioavailability: 88%
[40]
  concentration at 120 h: 1570 nM
